Reference: ChEMBL document CHEMBL1153336, “Cytotoxicity of cardenolides and cardenolide glycosides from Asclepias curassavica” (Bioorg Med Chem Lett, 2009)

Tests used:
HepG2 = assay: Cytotoxicity against human HepG2 cells by MTT assay; format: functional, cell-based
Raji = assay: Cytotoxicity against human Raji cells by MTT assay; format: functional, cell-based

Row | SMILES | IC50 (HepG2) | IC50 (Raji)
1 | C[C@@H]1C[C@H](O)[C@]2(O)O[C@@H]3C[C@@]4(C=O)[C@@H](CC[C@@H]5[C@@H]4C[C@@H](O)[C@]4(C)[C@@H](C6=CC(=O)OC6)CC[C@]54O)C[C@H]3O[C@@H]2O1 | 690 nM | 1460 nM
2 | CC(=O)O[C@@H]1C[C@]2(O)[C@@H]3CC[C@H]4C[C@H]5O[C@@H]6O[C@H](C)C[C@H](O)[C@]6(O)O[C@@H]5C[C@]4(C=O)[C@H]3CC[C@]2(C)[C@H]1C1=CC(=O)OC1 | 1340 nM | 3540 nM
3 | CC(=O)O[C@H]1C[C@@H](C)O[C@H]2O[C@@H]3C[C@@H]4CC[C@@H]5[C@H](CC[C@]6(C)[C@@H](C7=CC(=O)OC7)[C@H](OC(C)=O)C[C@]56O)[C@@]4(C=O)C[C@H]3O[C@]21O | 760 nM | 3210 nM
4 | CC(=O)O[C@H]1C[C@@H](C)O[C@H]2O[C@@H]3C[C@@H]4CC[C@@H]5[C@H](CC[C@]6(C)[C@@H](C7=CC(=O)OC7)[C@H](O)C[C@]56O)[C@@]4(C=O)C[C@H]3O[C@]21O | 3030 nM | 50 nM
5 | CO[C@]12CC[C@@]3(CO1)[C@@H](CC[C@@H]1[C@@H]3C[C@@H](O)[C@]3(C)[C@@H](C4=CC(=O)OC4)CC[C@]13O)C2 | 89900 nM | 64700 nM
6 | COc1cc(/C=C/C(=O)OC[C@H]2O[C@@H](O[C@H]3CC[C@@]4(C)[C@@H](CC[C@@H]5[C@@H]4CC[C@]4(C)[C@@H](C6=CC(=O)OC6)CC[C@]54O)C3)[C@H](O)[C@@H](O)[C@@H]2O)ccc1O | > 100000 nM | 41100 nM
7 | C[C@]12[C@H](O)C[C@H]3[C@@H](CC[C@H]4C[C@@H](O)CC[C@@]43CO)[C@@]1(O)CC[C@@H]2C1=CC(=O)OC1 | 5170 nM | 14600 nM
8 | CC(=O)O[C@H]1C[C@@H](C)O[C@H]2O[C@@H]3C[C@@H]4CC[C@@H]5[C@H](CC[C@]6(C)[C@@H](C7=CC(=O)OC7)CC[C@]56O)[C@@]4(C=O)C[C@H]3O[C@]21O [ASCLEPIN] | 20 nM | 20 nM
9 | C[C@]12CC[C@H]3[C@@H](CC[C@H]4C[C@@H](O)[C@H](O)C[C@@]43C=O)[C@@]1(O)CC[C@@H]2C1=CC(=O)OC1 [CALOTROPAGENIN] | 56600 nM | 24300 nM
10 | C[C@@H]1C[C@H](O)[C@]2(O)O[C@@H]3C[C@@]4(C=O)[C@@H](CC[C@@H]5[C@@H]4CC[C@]4(C)[C@@H](C6=CC(=O)OC6)CC[C@]54O)C[C@H]3O[C@@H]2O1 [CALOTROPIN] | 40 nM | 20 nM
11 | C[C@]12CC[C@H]3[C@@H](CC[C@H]4C[C@@H](O)CC[C@@]43CO)[C@@]1(O)CC[C@@H]2C1=CC(=O)OC1 [COROGLAUCIGENIN] | 6700 nM | 140 nM
12 | C[C@]12CC[C@H](O[C@@H]3O[C@H](CO)[C@@H](O)[C@H](O)[C@H]3O)C[C@@H]1CC[C@@H]1[C@@H]2CC[C@]2(C)[C@@H](C3=CC(=O)OC3)CC[C@]12O [DESGLUCOUZARIN] | 8530 nM | 750 nM
13 | C[C@@H]1CC(=O)[C@]2(O)O[C@@H]3C[C@@]4(C=O)[C@@H](CC[C@@H]5[C@@H]4CC[C@]4(C)[C@@H](C6=CC(=O)OC6)CC[C@]54O)C[C@H]3O[C@@H]2O1 [USCHARIDIN] | 380 nM | 20 nM
